pIC50: −log10 of the molar value. Values joined by “and” are separate entries in the source; they are usually repeats but may differ in a detail not shown here. Equal entries are not always repeated. “Also recorded” adds a separate entry of the source.
Experiments:
[1] = molecular target: T1, COX II (Homo sapiens, UniProt P35354); assay: radiometric assay, COX II inhibition (human recombinant, baculovirus expressed, partially purified); format: biochemical; parameters: A 1.8 Kb DNA fragment containing the coding region of human COX II was generated by PCR; made in house; host or cells: Sf9 insect cells, baculovirus
T1 sequence (P35354 18-604): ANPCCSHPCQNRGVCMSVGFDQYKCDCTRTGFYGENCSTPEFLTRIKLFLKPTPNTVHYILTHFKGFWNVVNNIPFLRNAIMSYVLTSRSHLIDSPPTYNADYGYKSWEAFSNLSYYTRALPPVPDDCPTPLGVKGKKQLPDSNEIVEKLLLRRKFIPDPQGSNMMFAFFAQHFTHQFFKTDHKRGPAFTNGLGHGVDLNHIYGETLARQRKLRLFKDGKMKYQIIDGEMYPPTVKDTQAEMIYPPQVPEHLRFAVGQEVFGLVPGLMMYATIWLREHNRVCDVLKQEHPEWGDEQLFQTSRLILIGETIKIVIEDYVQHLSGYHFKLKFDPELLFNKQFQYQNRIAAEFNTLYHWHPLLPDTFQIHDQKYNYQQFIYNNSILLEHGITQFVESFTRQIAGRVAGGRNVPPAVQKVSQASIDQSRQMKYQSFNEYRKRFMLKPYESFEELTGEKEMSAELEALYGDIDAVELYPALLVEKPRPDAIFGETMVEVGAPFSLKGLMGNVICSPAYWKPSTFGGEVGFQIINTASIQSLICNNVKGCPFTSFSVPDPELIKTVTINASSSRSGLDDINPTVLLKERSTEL
Summary of the method: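 Partially purified baculovirus-expressed human enzyme preincubated with compound, 2 mM phenol (5 min) then 1 μM hematin (5 min). Reaction in Tris-HCl pH 7.9 with 20 μM 1-[14C]arachidonate for 45 s at room temperature, acid-stopped; oxygenated products isolated on Sep-Pak and counted by scintillation.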

[2] = molecular target: COX I (Homo sapiens, UniProt P23219); assay: radiometric assay, COX I inhibition (human recombinant, baculovirus expressed, partially purified); format: biochemical; parameters: A 2 Kb fragment containing the coding region of COX I; made in house; host or cells: Sf9 insect cells, baculovirus (cDNA from Oxford Biomedical Research); conditions: very low substrate concentration
[3] = Pharmacokinetics in rat and monkey; format: in vivo
Description: The pharmacokinetics of Compound (16) was studied in rat and monkey after intravenous and oral administration in solution (ethanol/polyethylene glycol/water, 1/5/4) or SSV.

Sequence of COX I (P23219 24-599): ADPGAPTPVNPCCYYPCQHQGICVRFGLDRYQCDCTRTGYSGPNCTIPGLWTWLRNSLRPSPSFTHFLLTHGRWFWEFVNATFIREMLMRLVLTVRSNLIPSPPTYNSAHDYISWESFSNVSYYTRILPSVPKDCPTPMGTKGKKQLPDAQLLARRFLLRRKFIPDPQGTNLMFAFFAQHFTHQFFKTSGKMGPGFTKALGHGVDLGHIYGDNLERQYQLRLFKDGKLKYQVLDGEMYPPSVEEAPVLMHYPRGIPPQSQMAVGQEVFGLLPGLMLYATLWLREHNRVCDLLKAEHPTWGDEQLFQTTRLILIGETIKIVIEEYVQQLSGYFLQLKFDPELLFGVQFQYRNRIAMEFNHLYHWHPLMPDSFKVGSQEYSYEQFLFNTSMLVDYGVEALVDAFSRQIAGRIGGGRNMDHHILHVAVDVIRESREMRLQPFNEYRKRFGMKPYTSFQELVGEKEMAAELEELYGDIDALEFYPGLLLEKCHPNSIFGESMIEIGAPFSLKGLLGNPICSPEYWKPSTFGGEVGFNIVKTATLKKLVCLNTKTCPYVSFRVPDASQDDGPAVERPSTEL

Cc1cc(Cc2ccc(=O)[nH]n2)n(C)c1C(=O)c1ccc(Cl)cc1 [Compound 16, 6-[1,4-dimethyl-5-(4chloro-benzoyl)-1H-pyrrol-2-ylmethyl]-2H-pyridazin-3-one]
type of inhibition of COX II [1]: potent, time-dependent, reversible inhibition
pIC50 ([1]; 10 min incubation with compound, 45 sec incubation with 20 μM AA, separation of radioactive products, read-out: COX II IC50): 6.05 to 6.24 and 6.24 and 6.05 and 6.19
selectivity for COX II ([1]; COX II over COX I): significantly more selective for COX II than currently available NSAIDs; also recorded: highly selective for COX II
type of inhibition of COX I [2]: weak, competitive, non-time dependent inhibition
dose proportionality ([3]; 1-300 mg/kg): exhibited dose proportionality over a broad range of doses
half-life ([3]; in vivo, after intravenous dosing): 2 to 3 h
bioavailability ([3]; in vivo, rats and monkeys, oral): 40 to 80%

Source: US5622948A, “Pyrrole pyridazine and pyridazinone anti-inflammatory agents” (Syntex (U.S.A.) Inc., priority 1994, dated 1997)
